Laboratory results: US20100267561A1, “HERBICIDAL PYRIDAZINONE DERIVATIVES” (priority 2007, published 2010)
Like-named read-outs stand apart in the source and are kept apart here.

Assays:
Assay type in all cases: in vivo
[1] = tested on: annual bluegrass (Poa annua); test: Test C pre-/postemergence plant response
Summary of the method: (§1)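 Both preemergence (to planted seed) and postemergence (to plants 2–18 cm high, 1- to 4-leaf) applications used test chemicals in a non-phytotoxic solvent mixture containing surfactant. Evaluation: visual comparison with controls after 15 to 25 days; 0 means no effect, 100 complete control.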

[2] = tested on: wild mustard (Sinapis arvensis); test: Test C pre-/postemergence plant response
Summary of the method: as §1

[3] = tested on: downy bromegrass (Bromus tectorum); test: Test C pre-/postemergence plant response
Summary of the method: as §1

[4] = tested on: pigweed (Amaranthus retroflexus); test: Test C pre-/postemergence plant response
Summary of the method: as §1

[5] = tested on: windgrass (Apera spica-venti); test: Test C pre-/postemergence plant response
Summary of the method: as §1

[6] = tested on: green foxtail (Setaria viridis); test: Test C pre-/postemergence plant response
Summary of the method: as §1

[7] = tested on: blackgrass (Alopecurus myosuroides); test: Test C pre-/postemergence plant response
Summary of the method: as §1

[8] = tested on: spring barley (Hordeum vulgare); test: Test C pre-/postemergence plant response
Summary of the method: as §1

wild oat (Avena fatua) = test: Test C pre-/postemergence plant response
Summary of the method: as §1

[9] = tested on: winter wheat (Triticum aestivum); test: Test C pre-/postemergence plant response
Summary of the method: as §1

[10] = tested on: canarygrass (Phalaris minor); test: Test C pre-/postemergence plant response
Summary of the method: as §1

[11] = tested on: surinam grass (Brachiaria decumbens); test: Test B pre-/postemergence plant response; settings: for Surinam Grass plant response rating: 8 g ai/ha; for pest or weed control at 16 g/ha: 16 g ai/ha; for pest or weed control at 62 g/ha: 62 g ai/ha
Summary of the method: (§2)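 Preemergence and postemergence (plants 2-18 cm, 1- to 4-leaf stage) applications used test chemicals in a non-phytotoxic solvent with surfactant. Plants were held in a greenhouse 13 to 15 days, then rated visually against controls on a 0-100 scale (0 no effect, 100 complete control).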

[12] = tested on: johnsongrass (Sorghum halepense); test: Test B pre-/postemergence plant response; settings: for Johnsongrass plant response rating: 8 g ai/ha; for pest or weed control at 16 g/ha / pest or weed control at 31 g/ha / pest or weed control at 62 g/ha: Sorghum halepense, read-out: Plant response rating, Johnsongrass; for pest or weed control at 16 g/ha: 16 g ai/ha; for pest or weed control at 31 g/ha: 31 g ai/ha; for pest or weed control at 62 g/ha: 62 g ai/ha
Summary of the method: as §2

[13] = Postemergence, 8 g ai/ha, scale 0 to 100, 0 no effect, 100 complete control
[14] = Postemergence, 16 g ai/ha, scale 0 to 100, 0 no effect, 100 complete control
[15] = Postemergence, 31 g ai/ha, scale 0 to 100, 0 no effect, 100 complete control
[16] = Postemergence, 62 g ai/ha, scale 0 to 100, 0 no effect, 100 complete control
[17] = Preemergence, 8 g ai/ha, scale 0 to 100 (0 no effect, 100 complete control)
[18] = Preemergence, 16 g ai/ha, scale 0 to 100 (0 no effect, 100 complete control)
[19] = Preemergence, 31 g ai/ha, scale 0 to 100 (0 no effect, 100 complete control)
[20] = Preemergence, 62 g ai/ha, scale 0 to 100, 0 no effect, 100 complete control
[21] = post-emergence, Postemergence, scale 0 to 100, 0 no effect, 100 complete control

SMILES: CCc1c(C)c(-c2ccc(Cl)cc2)nn1-c1c(O)cnn(C)c1=O [Compound 26, 4-[3-(4-chlorophenyl)-5-ethyl-4-methyl-1H-pyrazol-1-yl]-5-hydroxy-2-methyl-3(2H)-pyridazinone]
- Plant response rating, Bluegrass [1, 13]: 0
- Plant response rating, Bluegrass [1, 14]: 0
- Plant response rating, Bluegrass [1, 15]: 0
- Plant response rating, Bluegrass [1, 16]: 15
- Plant response rating, Bluegrass [1, 17]: 0
- Plant response rating, Bluegrass [1, 18]: 0
- Plant response rating, Bluegrass [1, 19]: 0
- Plant response rating, Bluegrass [1, 20]: 0
- Plant response rating, Mustard, Wild [2, 13]: 0
- Plant response rating, Mustard, Wild [2, 14]: 0
- Plant response rating, Mustard, Wild [2, 17]: 0
- Plant response rating, Mustard, Wild [2, 18]: 0
- Plant response rating, Mustard, Wild [2, 19]: 0
- Plant response rating, Mustard, Wild [2, 20]: 0
- Plant response rating, Bromegrass, Downy [3, 13]: 0
- Plant response rating, Bromegrass, Downy [3, 14]: 0
- Plant response rating, Bromegrass, Downy [3, 15]: 0
- Plant response rating, Bromegrass, Downy [3, 16]: 0
- Plant response rating, Bromegrass, Downy [3, 17]: 0
- Plant response rating, Bromegrass, Downy [3, 18]: 0
- Plant response rating, Bromegrass, Downy [3, 19]: 0
- Plant response rating, Bromegrass, Downy [3, 20]: 20
- Plant response rating, Pigweed [4, 13]: 0
- Plant response rating, Pigweed [4, 14]: 0
- Plant response rating, Pigweed [4, 15]: 0
- Plant response rating, Pigweed [4, 16]: 20
- Plant response rating, Pigweed [4, 17]: 0
- Plant response rating, Pigweed [4, 18]: 0
- Plant response rating, Pigweed [4, 19]: 0
- Plant response rating, Pigweed [4, 20]: 20
- Plant response rating, Windgrass [5, 13]: 0
- Plant response rating, Windgrass [5, 14]: 0
- Plant response rating, Windgrass [5, 15]: 20
- Plant response rating, Windgrass [5, 16]: 65
- Plant response rating, Windgrass [5, 17]: 30
- Plant response rating, Windgrass [5, 18]: 30
- Plant response rating, Windgrass [5, 19]: 98
- Plant response rating, Windgrass [5, 20]: 100
- Plant response rating, Foxtail, Green [6, 13]: 90
- Plant response rating, Foxtail, Green [6, 14]: 95
- Plant response rating, Foxtail, Green [6, 15]: 95
- Plant response rating, Foxtail, Green [6, 16]: 98
- Plant response rating, Foxtail, Green [6, 17]: 0
- Plant response rating, Foxtail, Green [6, 18]: 0
- Plant response rating, Foxtail, Green [6, 19]: 75
- Plant response rating, Foxtail, Green [6, 20]: 100
- Plant response rating, Blackgrass [7, 13]: 50
- Plant response rating, Blackgrass [7, 14]: 50
- Plant response rating, Blackgrass [7, 15]: 70
- Plant response rating, Blackgrass [7, 16]: 95
- Plant response rating, Blackgrass [7, 17]: 20
- Plant response rating, Blackgrass [7, 18]: 50
- Plant response rating, Blackgrass [7, 20]: 75
- Plant response rating, Barley, Spring [8, 13]: 0
- Plant response rating, Barley, Spring [8, 14]: 0
- Plant response rating, Barley, Spring [8, 15]: 35
- Plant response rating, Barley, Spring [8, 16]: 50
- Plant response rating, Barley, Spring [8, 17]: 0
- Plant response rating, Barley, Spring [8, 18]: 0
- Plant response rating, Barley, Spring [8, 19]: 25
- Plant response rating, Barley, Spring [8, 20]: 35
- Plant response rating, Oat, Wild (wild oat (Avena fatua); [13]): 70
- Plant response rating, Oat, Wild (wild oat (Avena fatua); [14]): 98
- Plant response rating, Oat, Wild (wild oat (Avena fatua); [15]): 98
- Plant response rating, Oat, Wild (wild oat (Avena fatua); [16]): 100
- Plant response rating, Oat, Wild (wild oat (Avena fatua); [17]): 0
- Plant response rating, Oat, Wild (wild oat (Avena fatua); [18]): 15
- Plant response rating, Oat, Wild (wild oat (Avena fatua); [19]): 65
- Plant response rating, Oat, Wild (wild oat (Avena fatua); [20]): 75
- Plant response rating, Wheat, Winter [9, 13]: 0
- Plant response rating, Wheat, Winter [9, 14]: 0
- Plant response rating, Wheat, Winter [9, 15]: 30
- Plant response rating, Wheat, Winter [9, 16]: 35
- Plant response rating, Wheat, Winter [9, 17]: 0
- Plant response rating, Wheat, Winter [9, 18]: 0
- Plant response rating, Wheat, Winter [9, 19]: 0
- Plant response rating, Wheat, Winter [9, 20]: 25
- Plant response rating, Canarygrass [10, 13]: 25
- Plant response rating, Canarygrass [10, 14]: 75
- Plant response rating, Canarygrass [10, 15]: 75
- Plant response rating, Canarygrass [10, 16]: 100
- Plant response rating, Canarygrass [10, 17]: 0
- Plant response rating, Canarygrass [10, 18]: 0
- Plant response rating, Canarygrass [10, 19]: 65
- Plant response rating, Canarygrass [10, 20]: 70
- Surinam Grass plant response rating ([11]; postemergence, 0-100 scale): 85
- Surinam Grass plant response rating ([11]; Preemergence, scale 0 to 100): 75
- pest or weed control at 16 g/ha ([11]; Urochloa decumbens, post-emergence, Postemergence, scale 0 to 100, read-out: Plant response rating, Surinam Grass): 85%
- pest or weed control at 62 g/ha ([11]; Urochloa decumbens, post-emergence, Postemergence, scale 0 to 100, 0 no effect, 100 complete control, read-out: Plant response rating, Surinam Grass): 100%
- pest or weed control at 16 g/ha ([11]; Urochloa decumbens, pre-emergence, Preemergence, scale 0 to 100 (0 no effect, 100 complete control), read-out: Plant response rating, Surinam Grass): 85%
- pest or weed control at 31 g/ha ([11]; Urochloa decumbens, pre-emergence, Preemergence, 31 g ai/ha, 0 to 100 scale, 0 no effect, 100 complete control, read-out: Plant response rating, Surinam Grass): 100%
- pest or weed control at 62 g/ha ([11]; Urochloa decumbens, pre-emergence, Preemergence, scale 0 to 100, read-out: Plant response rating, Surinam Grass): 100%
- Johnsongrass plant response rating ([12]; postemergence, 0-100 scale): 0
- Johnsongrass plant response rating ([12]; Preemergence, scale 0 to 100): 0
- pest or weed control at 16 g/ha ([12]; post-emergence, Postemergence, scale 0 to 100): 0%
- pest or weed control at 31 g/ha [12, 21]: 20%
- pest or weed control at 62 g/ha [12, 21]: 20%
- pest or weed control at 16 g/ha ([12]; pre-emergence, Preemergence, scale 0 to 100 (0 no effect, 100 complete control)): 0%
- pest or weed control at 31 g/ha ([12]; pre-emergence, Preemergence, 0 to 100 scale, 0 no effect, 100 complete control): 0%
- pest or weed control at 62 g/ha ([12]; pre-emergence, Preemergence, scale 0 to 100): 50%
